By EC50 is commonly meant the concentration at which the effect is half-maximal.

For 20 compounds, EC50 results are on record in patent US9718828B2 (MERCK SHARP & DOHME CORP., priority 2011, dated 2017).

Each structure is given as a SMILES string. Structures can show the parent of a compound that is named as a salt.

The target of one test is Btk enzyme (His-Btk) (Homo sapiens (Human), UniProt Q06187). The test is described as follows: Btk enzyme activity, IMAP fluorescence polarization assay (Assay Method A).
Sequence of Btk enzyme (His-Btk) (Q06187 whole entry): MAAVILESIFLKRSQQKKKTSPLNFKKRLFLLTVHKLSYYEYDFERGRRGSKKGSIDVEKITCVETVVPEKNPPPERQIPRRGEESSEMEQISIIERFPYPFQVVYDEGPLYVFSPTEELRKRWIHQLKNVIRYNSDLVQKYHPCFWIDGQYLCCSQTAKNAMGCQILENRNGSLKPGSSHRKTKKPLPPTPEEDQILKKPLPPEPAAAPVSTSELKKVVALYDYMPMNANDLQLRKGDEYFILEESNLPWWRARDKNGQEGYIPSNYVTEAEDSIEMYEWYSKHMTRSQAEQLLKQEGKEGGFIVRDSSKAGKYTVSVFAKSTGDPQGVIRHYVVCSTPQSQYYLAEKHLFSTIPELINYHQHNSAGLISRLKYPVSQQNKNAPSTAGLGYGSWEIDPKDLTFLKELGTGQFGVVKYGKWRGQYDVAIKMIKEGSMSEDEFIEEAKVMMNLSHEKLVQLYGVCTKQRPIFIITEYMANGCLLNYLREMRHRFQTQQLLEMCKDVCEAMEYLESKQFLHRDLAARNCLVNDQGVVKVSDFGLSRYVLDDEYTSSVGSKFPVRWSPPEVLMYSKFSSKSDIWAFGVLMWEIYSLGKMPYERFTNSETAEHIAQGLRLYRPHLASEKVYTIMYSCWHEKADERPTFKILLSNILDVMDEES
Conditions: not given
On the technique in general: Fluorescence polarisation rises when a labelled molecule tumbles more slowly, as on binding a larger partner.
`CC(C)C(=O)N1CCOC(c2nc(-c3ccc(C(=O)Nc4cc(C(F)(F)F)ccn4)cc3)c3c(N)nccn23)C1` (centres unmarked) [Example 173, 4-(8-amino-3-(4-isobutyrylmorpholin-2-yl)imidazo[1,5-a]pyrazin-1-yl)-N-(4-(trifluoromethyl)pyridin-2-yl)benzamide]: the EC50 was less than 10 nM.
The same measure, in the same setting: the figure for `Nc1nccn2c([C@@H]3CCN(C(=O)C4CCOC4)C3)nc(-c3ccc(C(=O)Nc4ccccn4)cc3)c12` (stereo partly drawn) [Example 128, (R)-4-(8-amino-3-(1-(tetrahydrofuran-3-carbonyl)pyrrolidin-3-yl)imidazo[1,5-a]pyrazin-1-yl)-N-(pyridin-2-yl)benzamide, TFA salt] is 100 to 1000 nM; for `CCCc1ccnc(NC(=O)c2ccc(-c3nc(C4CCOCC4)n4ccnc(N)c34)cc2)c1` [Example 24, 4-(8-amino-3-(tetrahydro-2H-pyran-4-yl)imidazo [1,5-a]pyrazin-1-yl)-N-(4-propylpyridin-2-yl)benzamide] it is less than 10 nM; for `Nc1nccn2c([C@@H]3CCCN(C(=O)[C@H]4CC[C@H](N)CC4)C3)nc(-c3ccc(C(=O)Nc4ccccn4)cc3)c12` [Example 55, 4-(8-amino-3-((R)-1-((trans)-4-aminocyclohexanecarbonyl)piperidin-3-yl)imidazo[1,5-a]pyrazin-1-yl)-N-(pyridin-2-yl)benzamide, TFA salt] it is 10 to 100 nM.
The same measure, in the same setting: next, `Nc1nccn2c([C@@H]3CCCN(Cc4ccccc4)C3)nc(-c3ccc(C(=O)Nc4ccccn4)cc3)c12` [Example 133, (R)-4-(8-amino-3-(1-benzylpiperidin-3-yl)imidazo[1,5-a]pyrazin-1-yl)-N-(pyridin-2-yl)benzamide]: 100 to 1000 nM; `Cc1noc([C@H]2C[C@@H]2C(=O)N2CCC[C@@H](c3nc(-c4ccc(C(=O)Nc5cc(C(F)(F)F)ccn5)cc4)c4c(N)nccn34)C2)n1` [Example 82, 4-(8-amino-3-((R)-1-((1S,2S)-2-(3-methyl-1,2,4-oxadiazol-5-yl)cyclopropanecarbonyl)piperidin-3-yl)imidazo[1,5-a]pyrazin-1-yl)-N-(4-(trifluoromethyl)pyridin-2-yl)benzamide]: less than 10 nM; `CCC(=O)N1CCC[C@@H](c2nc(-c3ccc(C(=O)Nc4nc5c(s4)CC(C)CC5)cc3)c3c(N)nccn23)C1` (stereo in doubt) [Example 65, (R)-4-(8-amino-3-(1-propionylpiperidin-3-yl)imidazo[1,5-a]pyrazin-1-yl)-N-(6-methyl-4,5,6,7-tetrahydrobenzo[d]thiazol-2-yl)benzamide]: less than 10 nM.
Same read-out and setting: next, `Nc1nccn2c([C@@H]3CCCN(C(=O)C4(O)CCC4)C3)nc(-c3ccc(C(=O)Nc4cc(C(F)(F)F)ccn4)cc3)c12` [Example 81, (R)-4-(8-amino-3-(1-(1-hydroxycyclobutanecarbonyl)piperidin-3-yl)imidazo[1,5-a]pyrazin-1-yl)-N-(4-(trifluoromethyl)pyridin-2-yl)benzamide]: less than 10 nM; `CS(=O)(=O)N1CC(C(=O)N2CCC[C@@H](c3nc(-c4ccc(C(=O)Nc5cc(C(F)(F)F)ccn5)cc4)c4c(N)nccn34)C2)C1` [Example 73, (R)-4-(8-amino-3-(1-(1-(methylsulfonyl)azetidine-3-carbonyl)piperidin-3 yl)imidazo[1,5-a]pyrazin-1-yl)-N-(4-(trifluoromethyl)pyridin-2-yl)benzamide]: less than 10 nM.
`CC(CNC(=O)C1(C)COC1)c1nc(-c2ccc(C(=O)Nc3cc(C(F)(F)F)ccn3)cc2)c2c(N)nccn12` (centres unmarked) [Example 131, N-(2-(8-amino-1-(4-(4-(trifluoromethyl)pyridin-2-ylcarbamoyl)phenyl)imidazo[1,5-a]pyrazin-3-yl)propyl)-3-methyloxetane-3-carboxamide] returned an EC50 of less than 10 nM.
On the same count and under the same terms, next, `COCCC(=O)N1CCC[C@@H](c2nc(-c3ccc(C(=O)Nc4ccccn4)nc3)c3c(N)nccn23)C1` [Example 287, (R)-5-(8-amino-3-(1-(3-methoxypropanoyl)piperidin-3-yl)imidazo[1,5-a]pyrazin-1-yl)-N-(pyridin-2-yl)picolinamide, TFA salt]: 10 to 100 nM.

The same test, now with this note: read-out: EC50 Btk activity values - Assay Method A; IMAP-FP, 60 min pre-incubation, 5 μM ATP.
`COCCC(=O)N1CCC[C@@H](c2nc(-c3ccc(C(=O)Nc4ccccn4)cc3C(F)(F)F)c3c(N)nccn23)C1` [Example 283, 4-(8-amino-3-((R)-1-(3-methoxypropanoyl)piperidin-3-yl)imidazo[1,5-a]pyrazin-1-yl)-N-(pyridin-2-yl)-3-(trifluoromethyl)benzamide, TFA salt]: the EC50 was no less than 1000 nM.

The same test, now with this note: read-out: EC50 Btk activity values - Assay Method A; IMAP-FP, 60 min pre-incubation, 5 μM ATP; class 100-1000 is given as ≧100 nM-<1 μM.
As for `Nc1nccn2c1c(-c1ccc(C(=O)Nc3cc(-c4ccccc4)ccn3)cc1)nc2[C@H]1CC[C@H](O)CC1` [Example 20, 4-(8-amino-3-((trans)-4-hydroxycyclohexyl)imidazo[1,5-a]pyrazin-1-yl)-N-(4-phenylpyridin-2-yl)benzamide], the EC50 was less than 10 nM.
For `Nc1nccn2c1c(-c1ccc(C(=O)Nc3cc(C(F)(F)F)ccn3)cc1)nc2[C@H]1CC[C@H](O)CC1` [Example 2, 4-(8-amino-3-((trans)-4-hydroxycyclohexyl)imidazo[1,5-a]pyrazin-1-yl)-N-(4-(trifluoromethyl)pyridin-2-yl)benzamide], the EC50 is less than 10 nM.
Still for that read-out and setting: the figure for `CCCc1ccnc(NC(=O)c2ccc(-c3nc([C@H]4CC[C@H](O)CC4)n4ccnc(N)c34)cc2)c1` [Example 3, 4-(8-amino-3-((trans)-4-hydroxycyclohexyl)imidazo[1,5-a]pyrazin-1-yl)-N-(4-propylpyridin-2-yl)benzamide] is less than 10 nM; for `CCNC(=O)N[C@@H]1CCCN(c2nc(-c3ccc(C(=O)Nc4cc(C(F)(F)F)ccn4)cc3)c3c(N)nccn23)C1` [Example 221, (R)-4-(8-amino-3-(3-(3-ethylureido)piperidin-1-yl)imidazo[1,5-a]pyrazin-1-yl)-N-(4-(trifluoromethyl)pyridin-2-yl)benzamide] it is less than 10 nM; for `Nc1ncnn2c([C@@H]3CCCN(C(=O)C4CC(F)(F)C4)C3)nc(-c3ccc(C(=O)Nc4cc(C(F)(F)F)ccn4)cc3)c12` [Example 260, (R)-4-(4-amino-7-(1-(3,3-difluorocyclobutanecarbonyl)piperidin-3-yl)imidazo[1,5-f][1,2,4]triazin-5-yl)-N-(4-(trifluoromethyl)pyridin-2-yl)benzamide] it is less than 10 nM.
On the same count and under the same terms, next, `Nc1nccn2c(N3CCCC(C(=O)N4CCOCC4)C3)nc(-c3ccc(C(=O)Nc4cc(C(F)(F)F)ccn4)cc3)c12` (centres unmarked) [Example 234, 4-(8-amino-3-(3-(morpholine-4-carbonyl)piperidin-1-yl)imidazo[1,5-a]pyrazin-1-yl)-N-(4-(trifluoromethyl)pyridin-2-yl)benzamide, TFA salt]: less than 10 nM; `Nc1nccn2c(N3CCCC(C(=O)NC[C@@H]4CCCO4)C3)nc(-c3ccc(C(=O)Nc4ccccn4)cc3)c12` (stereo partly drawn) [Example 227, 1-(8-amino-1-(4-(pyridin-2-ylcarbamoyl)phenyl)imidazo[1,5-a]pyrazin-3-yl)-N-(((S)-tetrahydrofuran-2-yl)methyl)piperidine-3-carboxamide, TFA salt]: less than 10 nM; `CC1(C(=O)N2CCC[C@@H](c3nc(-c4ccc(C(=O)Nc5cc(C(F)(F)F)ccn5)cc4)c4c(N)ncc(-c5ccco5)n34)C2)COC1` [Example 311, (R)-4-(8-amino-5-(furan-2-yl)-3-(1-(3-methyloxetane-3-carbonyl)piperidin-3-yl)imidazo[1,5-a]pyrazin-1-yl)-N-(4-(trifluoromethyl)pyridin-2-yl)benzamide]: less than 10 nM.
